Like-named read-outs stand apart in the source and are kept apart here. Where no end group is shown, it is not given here. [ ]: non-standard residue; d: D form. 2Nal = N[C@@H](Cc1ccc2ccccc2c1)C(=O)O; Cit = NC(=O)NCCC[C@H](N)C(=O)O; Api = NC1(C(=O)O)CCNCC1; Dab = NCC[C@H](N)C(=O)O; Iph = iodophenylalanine
Experiments:
HELA-654 cells = test: Hela-654 eGFP assay (incucyte imaging, GFP positive cells, 72 h); assay type: cell-based; conditions: for EC50: 72 h
Protocol: HELA-654 cells were imaged at 72 hours with an incucyte and the number of GFP positive cells versus total cell counts were calculated with the incucyte image analysis software. Statistical analysis was conducted using a one-way analysis of variance (ANOVA) test with Dunnett's multiple comparison test. Bars represent mean±standard deviation (SD), with P<0.05 was considered to indicate statistical significance, (**** p<0.0001, *** […], ** p<0.01, * p<0.05).
HELA-654 cells were imaged at 72 hours with an incucyte and the number of GFP positive cells versus total cell counts were calculated with the incucyte image analysis software.

HeLa 654 cells [1] = test: HeLa 654 eGFP assay (flow cytometry, mean eGFP fluorescence, 22 h); assay type: cell-based; conditions: for PMO response (mean eGFP fluorescence relative to vehicle): 2.5 μM, segment-CXP1 conjugates; for PMO delivery: eGFP fluorescence relative to PMO alone: 20 μM, HeLa 654 cells, flow cytometry; for PMO delivery at varying concentrations (mean eGFP fluorescence relative to vehicle): 1, 2.5, 5, 10, 25 or 50 μM
Protocol: Purified constructs were then tested using an activity-based readout in which nuclear delivery results in fluorescence. Briefly, HeLa cells stably transfected with an Enhanced Green Fluorescent Protein (eGFP) gene interrupted by a mutated intron of β-globin (IVS2-654) produce a non-fluorescent eGFP protein. As used herein, Hela-654 cells refers to the Hela cells transfected with an Enhanced Green Fluorescent Protein (eGFP) gene interrupted by a mutated intron of β-globin (IVS2-654) and Hela-654 eGFP Assay is used to refer to an Assay that uses the Hela-654 cells. Successful delivery of PMO IVS2-654 to the nucleus results in corrective splicing and eGFP synthesis.
The amount of PMO delivered to the nucleus is therefore correlated with eGFP fluorescence, quantified by flow cytometry. Activity was reported as mean fluorescence intensity (MFI) relative to PMO alone. This activity assay provides indirect information on how much active PMO is delivered to the nucleus. Relative efficiency of a PMO-CPP conjugate was characterized by comparing activity to internal concentration.
[…] 18 h prior to treatment, the cells were plated at a density of 5,000 cells per well in a 96-well plate in DMEM supplemented with 10% FBS and 1% penicillin-streptomycin.
For individual peptide testing, PPMOs were dissolved in phosphate buffered saline (PBS) without Ca^2+ or Mg^2+ at a concentration of 1 mM (determined by UV absorbance of the PMO) before being diluted in Dulbecco's modified eagle medium (DMEM). Cells were incubated at the designated concentrations in triplicate for 22 h at 37° C. and 5% CO2. Next, the treatment media was removed, and the cells were washed once before being incubated with 0.25% Trypsin-EDTA for 15 min at 37° C. and 5% CO2. Lifted cells were transferred to a V-bottom 96-well plate and washed once with PBS, before being resuspended in PBS containing 2% FBS and 2 μg/mL propidium iodide (PI). Flow cytometry analysis was carried out on a BD LSRII flow cytometer. Gates were applied to the data to ensure that cells that were positive for propidium iodide or had forward/side scatter readings that were sufficiently different from the main cell population were excluded. Each sample was capped at 5,000 gated events.
Analysis was conducted using Graphpad Prism 7 and FlowJo. For each sample, the mean fluorescence intensity (MFI) and the number of gated cells were measured. To report activity, triplicate MFI values were averaged and normalized to the PMO alone condition.

HeLa 654 cells [2] = test: Lactate dehydrogenase (LDH) release assay in HeLa 654 cells; assay type: cell-based; conditions: 25 μM
Protocol: The media from the cells was analyzed for LDH release with an LDH assay and the percentage of LDH release was calculated relative to fully lysed cells.
Cytotoxicity assays were performed in HeLa 654 cells or TH-1 renal cells. TH-1 cells were maintained in DMEM supplemented with 10% (v/v) fetal bovine serum (FBS) and 1% (v/v) penicillin-streptomycin at 37° C. and 5% CO2H-1. Cells were plated at 5,000 cells/well in a 96-well plate 18-hours prior to treatment and treated with PMO-peptide compounds as described above. HeLa cell LDH assays were performed concurrently on the cells treated for Flow cytometry, so all plating and treatment protocols match those described above.
17 hours after cell treatment, the Promega CytoTox lysis solution was added to 3 wells of each plate as a fully lysed control (100% LDH-release). 18 hours after treatment, cell supernatant was transferred to a new 96-well plate for analysis of LDH release. To each well of the 96-well plate containing supernatant was added CytoTox 96 Reagent (Promega). […] Equal volume of Stop Solution was added to each well, mixed, and the absorbance of each well was measured at 490 nm. The measurement of vehicle-treated cells was subtracted from each measurement, and % LDH release was calculated as % cytotoxicity=100×Experimental LDH Release (OD490)/Maximum LDH Release (OD490).

eGFP-654 mice = test: eGFP-654 mouse study: GFP fluorescence in tissue homogenates; assay type: in vivo; conditions: 20 mg/kg intravenous, tissues collected weekly for 8 weeks
Protocol: The tissues from a series of organs were homogenized and GFP fluorescence was measured with a spectrophotometer and normalized to tissue quantity (FIG. 9-17). Median effective dose (ED50) was also derived from the dose-response curve. PMO-CXP1 compound exposure was calculated with an enzyme-linked oligonucleotide hybridization assay (ELOHA). Briefly, the ELOHA assay is a two-step hybridization assay where the analyte is bound to both an immobilized capture probe and biotinylated detection probe. Streptavidin-AP-conjugate is added to the mixture and AttoPhos substrate is added to the system and incubated for 10 minutes. Stop solution is added and the plate is read on the spectrophotometer. The compound concentrations were determined from a standard curve. […] Compound efficacy and exposure were calculated in the quadriceps (FIGS. 9-10), heart (FIGS. 11-12), diaphragm (FIGS. 13-14), and kidney (FIGS. 15-16). The compound was also found to have efficacy for up to 56 days in vivo (FIG. 17).
PPMOs at 3 mg/kg were intravenously delivered to eGFP-654 mice. […] The tissues were homogenized and GFP fluorescence measurements were read for a fluorescence spectrophotometer and normalized to tissue quantity to measure efficacy (FIGS. 26-29). Compound efficacy and exposure were calculated in the quadriceps (FIG. 26), heart (FIG. 27), diaphragm (FIG. 28), and kidney (FIG. 29).

[3] = chimeric peptide PMO conjugates, read-out: EC50 (at 72 h)
[4] = CXP1 Dab analogs, read-out: EC50 (at 72 h)

For “Lys-Thr-Ser-Iph-Gly-Arg-Lys-Gln-Lys-Thr-Ser-Iph-Gly-Arg-Gly-Pip-Lys-Trp-Lys-Lys (KTS[Iph]GRKQKTS[Iph]GRG[Api]KWKK; not fully specified (C-terminus); printed as Lys-Thr-Ser-Iph-Gly-Arg-Lys-Gln-Lys-Thr-Ser-Iph-Gly-Arg-Gly-Pip-Lys-Trp-Lys-Lys; also: PMO conjugate) [SB-CXP1]”, the EC50 (HELA-654 cells; [3]) was 2.08 µM and the “PMO response (mean eGFP fluorescence relative to vehicle)” value (HeLa 654 cells [1]; 22 h) was “highest PMO response compared to the other segment-CXP1 sequences”.
With “Iph-Gly-Arg-Gly-Pip-Lys-Gln-Lys-Thr-Ser-Iph-Gly-Arg-Gly-Pip-Lys-Trp-Lys-Lys ([Iph]GRG[Api]KQKTS[Iph]GRG[Api]KWKK; also: PMO conjugate) [SA-CXP1]” the “Toxicity: LDH release” value (HeLa 654 cells [2]) was “toxicity closest to the parent CXP1-CXP1 peptide”, the EC50 (HELA-654 cells; [3]) was 1.57 µM and the “PMO response (mean eGFP fluorescence relative to vehicle)” value (HeLa 654 cells [1]; 22 h) was “highest PMO response compared to the other segment-CXP1 sequences”.
For [Dab]VARNN[Dab]TKGKWKK [PMO-CXP3], the EC50 (HELA-654 cells; read-out: EC50 (at 72 h)) was 13.8 µM, the “PMO delivery: eGFP fluorescence relative to PMO alone” value (HeLa 654 cells [1]) was “high levels of PMO delivery” and the “PMO delivery at varying concentrations (mean eGFP fluorescence relative to vehicle)” value (HeLa 654 cells [1]; 22 h) was “dose-dependent delivery of PMO”.
“Cit-Met-Phe-Gly-Pip-Dab-Dab-Lys-Ala-Pro-Lys-Trp-Lys-Lys ([Cit]MFG[Api][Dab][Dab]KAPKWKK; also: PMO conjugate) [PMO-CXP4]” was tested, and the EC50 (HELA-654 cells; read-out: EC50 (at 72 h)) was 4.57 µM, the “PMO delivery: eGFP fluorescence relative to PMO alone” value (HeLa 654 cells [1]) was “high levels of PMO delivery” and the “PMO delivery at varying concentrations (mean eGFP fluorescence relative to vehicle)” value (HeLa 654 cells [1]; 22 h) was “dose-dependent delivery of PMO”.
For “Lys-Thr-Ser-Iph-Gly-Arg-Lys-Gln-Lys-Thr-Ser-Iph-Gly-Arg-Lys-Trp-Lys-Lys (KTS[Iph]GRKQKTS[Iph]GRKWKK; not fully specified (N-terminus, C-terminus); printed as Lys-Thr-Ser-Iph-Gly-Arg-Lys-Gln-Lys-Thr-Ser-Iph-Gly-Arg-Lys-Trp-Lys-Lys; also: PMO IVS2-654 conjugate) [CXD1A]”, the EC50 (HELA-654 cells; [3]) was 3.35 µM and the “PMO delivery (mean eGFP fluorescence relative to vehicle)” value (HeLa 654 cells [1]; 1 μM, 22 h) was “high PMO delivery”.
With “Asn-Phe-Lys-Gln-Nap-His-Ala-Gly-Dab-Arg-Lys-Trp-Lys-Lys (NFKQ[2Nal]HAG[Dab]RKWKK; also: PMO conjugate) [PMO-CXP2]” the EC50 (HELA-654 cells; read-out: EC50 (at 72 h)) was 11.5 µM, the “PMO delivery: eGFP fluorescence relative to PMO alone” value (HeLa 654 cells [1]) was “high levels of PMO delivery” and the “PMO delivery at varying concentrations (mean eGFP fluorescence relative to vehicle)” value (HeLa 654 cells [1]; 22 h) was “dose-dependent delivery of PMO”.
With “Lys-Gln-Lys-Thr-Ser-Iph-Gly-Arg-Gly-Pip-Lys-Trp-Lys-Lys (KQKTS[Iph]GRG[Api]KWKK-NH2; also: PMO conjugated via DBCO linker) [PMO-CXP1]” the “Duration of efficacy in vivo” value (eGFP-654 mice) was “up to 56 days”, the EC50 (HELA-654 cells; read-out: EC50 (at 72 h)) was 7.08 µM and the “PMO delivery: eGFP fluorescence relative to PMO alone” value (HeLa 654 cells [1]) was “high levels of PMO delivery”. For the same substance, the “PMO delivery at varying concentrations (mean eGFP fluorescence relative to vehicle)” value (HeLa 654 cells [1]; 22 h) was “dose-dependent delivery of PMO”.
With “Dab-Gln-Dab-Thr-Ser-Iph-Gly-Arg-Gly-Dab-Dab-Trp-Dab-Dab-Lys-Trp-Lys-Lys ([Dab]Q[Dab]TS[Iph]GRG[Dab][Dab]W[Dab][Dab]KWKK; also: PMO conjugate) [PMO-CXP1AE]” the EC50 (HELA-654 cells; [4]) was 6.38 µM.
Work on “Lys-Gln-Lys-Thr-Ser-Phe-Gly-Arg-Gly-Pip-Lys-Trp-Lys-Lys (KQKTSFGRG[Api]KWKK; not fully specified (C-terminus); printed as Lys-Gln-Lys-Thr-Ser-Phe-Gly-Arg-Gly-Pip-Lys-Trp-Lys-Lys; also: PMO conjugate) [PMO-CXP1X]” yielded an EC50 (HELA-654 cells; CXP1 analogs (unnatural amino acids replaced), read-out: EC50 (72 h)) of 17.4 µM.
With “Dab-Gln-Dab-Thr-Ser-Iph-Gly-Dab-Gly-Pip-Dab-Trp-Dab-Dab-Lys-Trp-Lys-Lys [PMO-CXP1AD]” the EC50 (HELA-654 cells; [4]) was 5.64 µM.
Substance “Dab-Gln-Dab-Thr-Ser-Iph-Gly-Arg-Gly-Pip-Dab-Trp-Dab-Dab-Lys-Trp-Lys-Lys ([Dab]Q[Dab]TS[Iph]GRG[Api][Dab]W[Dab][Dab]KWKK; also: PMO conjugate) [PMO-CXP1AC]” has an EC50 (HELA-654 cells; [4]) of 4.75 µM.
For “Cit-Met-Phe-Gly-Pip-Dab-Dab-Lys-Ala-Pro-Lys-Trp-Lys-Lys-Gly-Lys-Gln-Lys-Thr-Ser-Iph-Gly-Arg-Gly-Pip-Lys-Trp-Lys-Lys ([Cit]MFG[Api][Dab][Dab]KAPKWKKGKQKTS[Iph]GRG[Api]KWKK; also: PMO conjugate) [PMO-CXP4-CXP1]”, the EC50 (HELA-654 cells; [3]) was 59.2 µM.
With “Lys-Gln-Lys-Thr-Ser-Iph-Gly-Arg-Gly-Pip-Lys-Trp-Ala-Lys (KQKTS[Iph]GRG[Api]KWAK; not fully specified (C-terminus); printed as Lys-Gln-Lys-Thr-Ser-Iph-Gly-Arg-Gly-Pip-Lys-Trp-Ala-Lys; also: PMO conjugate) [PMO-CXP1N]” the “Percentage of GFP Positive Cells at 72 hours (20 μM)” value (HELA-654 cells; alanine scan, 20 μM of PPMO, 72 hours) was 45.4%.
“Lys-Gln-Lys-Thr-Ser-Iph-Gly-Iph-Gly-Pip-Lys-Trp-Lys-Lys (KQKTS[Iph]G[Iph]G[Api]KWKK; not fully specified (C-terminus); printed as Lys-Gln-Lys-Thr-Ser-Iph-Gly-Iph-Gly-Pip-Lys-Trp-Lys-Lys; also: PMO conjugate) [PMO-CXP1S]” was tested, and the “Percentage of GFP Positive Cells at 72 hours (30 μM)” value (HELA-654 cells; Iph scan, 30 μM of compound, 72 hours) was 82.3%.
Work on “Dab-Val-Ala-Arg-Asn-Asn-Dab-Thr-Lys-Gly-Lys-Trp-Lys-Lys-Gly-Lys-Gln-Lys-Thr-Ser-Iph-Gly-Arg-Gly-Pip-Lys-Trp-Lys-Lys [PMO-CXP3-CXP1]” yielded an EC50 (HELA-654 cells; [3]) of 0.026 µM.
